Results reported in PubChem BioAssay (NCI).
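Growth conditions: 96-well plates. Treatment: test compound, 48 hours, 5 concentrations. Analysis: linear interpolation between bracketing concentrations; unreached endpoints set to highest concentration. At the GI50, growth is halved. TGI marks complete inhibition of growth.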

Assays:
Assay in all cases: inhibition of tumour cell growth, NCI panel, 48 h
SF-295 CNS = system: SF-295 CNS
NCI-H226 lung = system: NCI-H226 lung
CCRF-CEM leukemia = system: CCRF-CEM leukemia
HS 578T breast = system: HS 578T breast
HCC-2998 colon = system: HCC-2998 colon
MDA-MB-435 = system: MDA-MB-435
NCI-H23 lung = system: NCI-H23 lung
LOX IMVI melanoma = system: LOX IMVI melanoma
UACC-257 melanoma = system: UACC-257 melanoma
U251 CNS = system: U251 CNS
HCT-116 colon = system: HCT-116 colon
SN12C renal = system: SN12C renal
NCI/ADR-RES ovarian = system: NCI/ADR-RES ovarian
ACHN renal = system: ACHN renal
MDA-MB-231 breast = system: MDA-MB-231 breast
BT-549 breast = system: BT-549 breast
HL-60(TB) leukemia = system: HL-60(TB) leukemia
NCI-H460 lung = system: NCI-H460 lung
KM12 colon = system: KM12 colon
K-562 leukemia = system: K-562 leukemia
OVCAR-5 ovarian = system: OVCAR-5 ovarian
NCI-H522 lung = system: NCI-H522 lung
SW-620 colon = system: SW-620 colon
TK-10 renal = system: TK-10 renal
UO-31 renal = system: UO-31 renal
RPMI-8226 leukemia = system: RPMI-8226 leukemia
OVCAR-4 ovarian = system: OVCAR-4 ovarian
T-47D breast = system: T-47D breast
IGROV1 ovarian = system: IGROV1 ovarian
HCT-15 colon = system: HCT-15 colon
A498 renal = system: A498 renal
HOP-62 NSCLC = system: HOP-62 NSCLC
A549 NSCLC = system: A549 NSCLC
EKVX NSCLC = system: EKVX NSCLC
SR leukemia = system: SR leukemia
CAKI-1 renal = system: CAKI-1 renal
MCF7 breast = system: MCF7 breast
SNB-75 CNS = system: SNB-75 CNS
PC-3 prostate = system: PC-3 prostate
OVCAR-3 ovarian = system: OVCAR-3 ovarian
SK-OV-3 ovarian = system: SK-OV-3 ovarian
HOP-92 NSCLC = system: HOP-92 NSCLC
HT29 colon = system: HT29 colon
RXF 393 renal = system: RXF 393 renal
SK-MEL-2 melanoma = system: SK-MEL-2 melanoma
SK-MEL-5 melanoma = system: SK-MEL-5 melanoma
MOLT-4 leukemia = system: MOLT-4 leukemia
SK-MEL-28 melanoma = system: SK-MEL-28 melanoma
SNB-19 CNS = system: SNB-19 CNS
DU-145 prostate = system: DU-145 prostate
COLO 205 colon = system: COLO 205 colon
SF-268 CNS = system: SF-268 CNS
MALME-3M melanoma = system: MALME-3M melanoma
UACC-62 melanoma = system: UACC-62 melanoma
SF-539 CNS = system: SF-539 CNS
786-0 renal = system: 786-0 renal

**Q.** Which results are given for NC(=O)CCC(NC(=O)OCc1ccccc1)C(=O)OCC(=O)c1ccccc1 (configuration not stated)?
**A.** GI50 (SF-295 CNS): > 100 µM; TGI (SF-295 CNS): > 100 µM; GI50 (NCI-H226 lung): > 100 µM; TGI (NCI-H226 lung): > 100 µM; GI50 (CCRF-CEM leukemia): > 100 µM; TGI (CCRF-CEM leukemia): > 100 µM; GI50 (HS 578T breast): > 100 µM; TGI (HS 578T breast): > 100 µM; GI50 (HCC-2998 colon): 65.6 µM; TGI (HCC-2998 colon): > 100 µM; GI50 (MDA-MB-435): > 100 µM; TGI (MDA-MB-435): > 100 µM; GI50 (NCI-H23 lung): > 100 µM; TGI (NCI-H23 lung): > 100 µM; GI50 (LOX IMVI melanoma): > 100 µM; TGI (LOX IMVI melanoma): > 100 µM; GI50 (UACC-257 melanoma): > 100 µM; TGI (UACC-257 melanoma): > 100 µM; GI50 (U251 CNS): > 100 µM; TGI (U251 CNS): > 100 µM; GI50 (HCT-116 colon): > 100 µM; TGI (HCT-116 colon): > 100 µM; GI50 (SN12C renal): > 100 µM; TGI (SN12C renal): > 100 µM; GI50 (NCI/ADR-RES ovarian): > 100 µM; TGI (NCI/ADR-RES ovarian): > 100 µM; GI50 (ACHN renal): > 100 µM; TGI (ACHN renal): > 100 µM; GI50 (MDA-MB-231 breast): > 100 µM; TGI (MDA-MB-231 breast): > 100 µM; GI50 (BT-549 breast): > 100 µM; TGI (BT-549 breast): > 100 µM; GI50 (HL-60(TB) leukemia): > 100 µM; TGI (HL-60(TB) leukemia): > 100 µM; GI50 (NCI-H460 lung): > 100 µM; TGI (NCI-H460 lung): > 100 µM; GI50 (KM12 colon): > 100 µM; TGI (KM12 colon): > 100 µM; GI50 (K-562 leukemia): > 100 µM; TGI (K-562 leukemia): > 100 µM; GI50 (OVCAR-5 ovarian): > 100 µM; TGI (OVCAR-5 ovarian): > 100 µM; GI50 (NCI-H522 lung): > 100 µM; TGI (NCI-H522 lung): > 100 µM; GI50 (SW-620 colon): > 100 µM; TGI (SW-620 colon): > 100 µM; GI50 (TK-10 renal): > 100 µM; TGI (TK-10 renal): > 100 µM; GI50 (UO-31 renal): > 100 µM; TGI (UO-31 renal): > 100 µM; GI50 (RPMI-8226 leukemia): > 100 µM; TGI (RPMI-8226 leukemia): > 100 µM; GI50 (OVCAR-4 ovarian): > 100 µM; TGI (OVCAR-4 ovarian): > 100 µM; GI50 (T-47D breast): > 100 µM; TGI (T-47D breast): > 100 µM; GI50 (IGROV1 ovarian): > 100 µM; TGI (IGROV1 ovarian): > 100 µM; GI50 (HCT-15 colon): > 100 µM; TGI (HCT-15 colon): > 100 µM; GI50 (A498 renal): > 100 µM; TGI (A498 renal): > 100 µM; GI50 (HOP-62 NSCLC): > 100 µM; TGI (HOP-62 NSCLC): > 100 µM; GI50 (A549 NSCLC): > 100 µM; TGI (A549 NSCLC): > 100 µM; GI50 (EKVX NSCLC): > 100 µM; TGI (EKVX NSCLC): > 100 µM; GI50 (SR leukemia): > 100 µM; TGI (SR leukemia): > 100 µM; GI50 (CAKI-1 renal): > 100 µM; TGI (CAKI-1 renal): > 100 µM; GI50 (MCF7 breast): > 100 µM; TGI (MCF7 breast): > 100 µM; GI50 (SNB-75 CNS): > 100 µM; TGI (SNB-75 CNS): > 100 µM; GI50 (PC-3 prostate): > 100 µM; TGI (PC-3 prostate): > 100 µM; GI50 (OVCAR-3 ovarian): > 100 µM; TGI (OVCAR-3 ovarian): > 100 µM; GI50 (SK-OV-3 ovarian): > 100 µM; TGI (SK-OV-3 ovarian): > 100 µM; GI50 (HOP-92 NSCLC): > 100 µM; TGI (HOP-92 NSCLC): > 100 µM; GI50 (HT29 colon): > 100 µM; TGI (HT29 colon): > 100 µM; GI50 (RXF 393 renal): > 100 µM; TGI (RXF 393 renal): > 100 µM; GI50 (SK-MEL-2 melanoma): > 100 µM; TGI (SK-MEL-2 melanoma): > 100 µM; GI50 (SK-MEL-5 melanoma): > 100 µM; TGI (SK-MEL-5 melanoma): > 100 µM; GI50 (MOLT-4 leukemia): > 100 µM; TGI (MOLT-4 leukemia): > 100 µM; GI50 (SK-MEL-28 melanoma): 43.9 µM; TGI (SK-MEL-28 melanoma): > 100 µM; GI50 (SNB-19 CNS): > 100 µM; TGI (SNB-19 CNS): > 100 µM; GI50 (DU-145 prostate): > 100 µM; TGI (DU-145 prostate): > 100 µM; GI50 (COLO 205 colon): > 100 µM; TGI (COLO 205 colon): > 100 µM; GI50 (SF-268 CNS): > 100 µM; TGI (SF-268 CNS): > 100 µM; GI50 (MALME-3M melanoma): > 100 µM; TGI (MALME-3M melanoma): > 100 µM; GI50 (UACC-62 melanoma): > 100 µM; TGI (UACC-62 melanoma): > 100 µM; GI50 (SF-539 CNS): > 100 µM; TGI (SF-539 CNS): > 100 µM; GI50 (786-0 renal): > 100 µM; TGI (786-0 renal): > 100 µM
